In patent US20120178124A1, “STEROL SIDE CHAIN-CLEAVING ENZYME PROTEIN AND USE THEREOF” (MITSUBISHI CHEMICAL CORPORATION, priority 2009, published 2012):
Where two headings read alike, the source gives them in different places.

System: CYP204A1
Conditions: strain BP172, same reaction as Example 6 (28° C., 5 hours)
Experimental: Novosphingobium aromaticivorans (ATCC 700278) was inoculated into an L medium, and it was then cultured at 30° C. for 2 days. Thereafter, genomic DNA was extracted from the cell mass obtained in the same manner as that of Example 1. A fragment comprising a CYPSS204A1 gene and a ferredoxin gene located downstream thereof was amplified from the above-described genomic DNA by using a primer CYP-5F (SEQ ID NO: 9) and a primer CYP-6R (SEQ ID NO: 10) and also using La Taq polymerase (manufactured by Takara Bio INC.). The temperature conditions applied during this operation were 94° C./3 min, 30 cycles of (98° C./20 sec, 63° C./30 sec, and 68° C./2 min), and 72° C./5 min.
Escherichia coli BL21(DE3) was transformed with this plasmid, and the obtained cell strain was named as BP172.
The Escherichia coli expression strain BP215 was inoculated into 2 ml of an M9 mix medium (Na2HPO4: 0.68%, KH2PO4: 0.3%, NaCl: 0.05%, NH4C;: 0.01%, Casamino acid: 1%, D-Glucose: 0.4%, CaCl2: 0.1 mM, MgCl2: 1 mM, Thiamine: 0.002%, FeSO4: 0.1 mM, Carbenicillin: 0.005%), and it was then subjected to shaking culture at 30° C. for 17 hours, so as to obtain pre-culture solution. 0.25 ml of this pre-culture solution was inoculated into 25 ml of the main culture medium (Na2HPO4: 0.68%, KH2PO4: 0.3%, NaCl: 0.05%, NH4Cl: 0.01%, Casamino acid: 1%, CaCl2: 0.1 mM, MgCl2: 1 mM, Thiamine: 0.002%, FeSO4: 0.1 mM, Carbenicillin: 0.005%, Overnight Express™ solution: 7%, 5-Aminolevlic acid: 0.008%) using Overnight Express™ Autoinduction System (Novagen Cat. No. 71300-4), and it was then subjected to shaking culture at 25° C. for 24 hours. 5 ml of the obtained main culture solution was centrifuged (3500 rpm, 10 minutes) to obtain cell mass, and 1 ml of CV2 buffer (50 mM (pH) potassium phosphate buffer containing glycerol: 2%, carbenicillin: 0.005%, and isopropyl β-D-1-thiogalactopyranoside: 0.1 mM) was added to the obtained cell mass. Thereafter, 0.01 ml of the methanol solution of 1% 4-cholesten-3-one and 0.02 ml of an aqueous solution of 25% methyl-β-cyclodextrin were added to the mixed solution, and the obtained mixture was then shaken at 28° C. for 5 hours for the reaction. After completion of the reaction, 4 ml of methanol was added to the reaction solution, and they were then fully mixed. The obtained mixture was centrifuged, and the upper layer was then analyzed by HPLC.
As substrates, 4-cholesten-3-one, cholesterol, 7-dehydrocholesterol, ergosterol, 13-sitosterol, stigmasterol, campesterol, desmosterol, (20S)-20-hydroxycholest-4-en-3-one, (22R)-22-hydroxycholest-4-en-3-one, (20R,22R)-20,22-dihydroxycholest-4-en-3-one, and (20R,22S)-20,22-dihydroxycholest-4-en-3-one were used. Each substrate was subjected to the same reaction as that of Example 6, separately, and the generated product was then analyzed by HPLC.

SMILES: CC(C)CCC[C@@H](C)[C@H]1CC[C@H]2[C@@H]3CCC4=CC(=O)CC[C@]4(C)[C@H]3CC[C@]12C [4-cholesten-3-one]
- Conversion rate: 84.0%
- Conversion rate (listed as 4Chol): 84%
